In brackets after ≈: the same amount, converted by molar mass.
Key:
S. aureus = experiment: MIC assay, S. aureus; type: cell-based, Staphylococcus aureus
S. pneumo. = experiment: MIC assay, S. pneumo.; type: cell-based, Streptococcus pneumoniae
E. faecalis = experiment: MIC assay, E. faecalis; type: cell-based, Enterococcus faecalis
H. flu = type: cell-based, H. influenza; settings: H. flu
E coli = experiment: MIC assay, E coli; type: cell-based

Structure (SMILES) | MIC (μg/mL) S. aureus (S. aureus) [µg/mL] | MIC (μg/mL) S. pneumo. (S. pneumo.) [µg/mL] | MIC (μg/mL) E. faecalis (E. faecalis) [µg/mL] | MIC (μg/mL) H. flu (H. flu) [µg/mL] | MIC (μg/mL) E coli (E coli) [µg/mL]
CO[C@H]1/C=C/O[C@@]2(C)Oc3c(C)c(O)c4c(=O)c(c5oc6cc(N7CCC(N(C)C)CC7)cc(O)c6nc-5c4c3C2=O)NC(=O)/C(C)=C\C=C\[C@H](C)[C@H](O)[C@@H](C)[C@@H](O)[C@@H](C)[C@H](O)[C@@H]1C [Compound 18, 25-O-deacetyl-3′-hydroxy-5′-(4-N,N dimethylamino-1-piperidinyl)benzoxazinorifamycin] | 0.004 (≈ 4.52 nM) | 0.00012 (≈ 0.136 nM) | 0.12 (≈ 136 nM) | 0.5 (≈ 565 nM) | 4 (≈ 4520 nM)
CCOC(=O)NC1CCN(c2ccc3nc4c5c6c7c(C)c(O)c5c(=O)c(c-4n(C)c3c2)NC(=O)/C(C)=C\C=C\[C@H](C)[C@H](O)[C@@H](C)[C@@H](O)[C@@H](C)[C@H](OC(C)=O)[C@H](C)[C@@H](OC)/C=C/O[C@@](C)(O7)C6=O)CC1 [Compound 19] | 0.004 (≈ 4.13 nM) | 0.001 (≈ 1.03 nM) | 0.06 (≈ 62 nM) | 0.25 (≈ 258 nM) | 4 (≈ 4130 nM)
COC1C=COC2(C)Oc3c(C)c(O)c4c(=O)c(c5oc6cc(N7CC8C(N)C8C7)cc(O)c6nc-5c4c3C2=O)NC(=O)C(C)=CC=CC(C)C(O)C(C)C(O)C(C)C(O)C1C [Compound 20, 25-O-deacetyl-3′-hydroxy-5′-[6-amino-(1R,5S)-3-azabicyclo[3.1.0]hex-3-yl]benzoxazinorifamycin] | 2 (≈ 2340 nM) | 1 (≈ 1170 nM) | >8 | >8 | >8
CCOC(=O)NC1C2CN(c3cc(O)c4nc5c6c7c8c(C)c(O)c6c(=O)c(c-5oc4c3)NC(=O)C(C)=CC=CC(C)C(O)C(C)C(O)C(C)C(OC(C)=O)C(C)C(OC)C=COC(C)(O8)C7=O)CC21 (stereo not shown) [Compound 21] | 0.004 (≈ 4.13 nM) | 0.001 (≈ 1.03 nM) | 0.12 (≈ 124 nM) | 0.5 (≈ 516 nM) | 4 (≈ 4130 nM)
CO[C@H]1/C=C/O[C@@]2(C)Oc3c(C)c(O)c4c(=O)c(c5oc6cc(N7CCC(NC(=O)OC(C)C)CC7)cc(O)c6nc-5c4c3C2=O)NC(=O)/C(C)=C\C=C\[C@H](C)[C@H](O)[C@@H](C)[C@@H](O)[C@@H](C)[C@H](OC(C)=O)[C@@H]1C [Compound 22] | 0.015 (≈ 15.2 nM) | 0.00025 (≈ 0.254 nM) | 4 (≈ 4060 nM) | 2 (≈ 2030 nM) | >8
CO[C@H]1/C=C/O[C@@]2(C)Oc3c(C)c(O)c4c(=O)c(c5oc6cc(N7CCC(NS(=O)(=O)C(F)(F)F)CC7)cc(O)c6nc-5c4c3C2=O)NC(=O)/C(C)=C\C=C\[C@H](C)[C@H](O)[C@@H](C)[C@@H](O)[C@@H](C)[C@H](OC(C)=O)[C@@H]1C [Compound 23] | 0.015 (≈ 14.5 nM) | 0.00012 (≈ 0.116 nM) | 4 (≈ 3880 nM) | 2 (≈ 1940 nM) | >8
CCCC(=O)NC1CCN(c2cc(O)c3nc4c5c6c7c(C)c(O)c5c(=O)c(c-4oc3c2)NC(=O)/C(C)=C\C=C\[C@H](C)[C@H](O)[C@@H](C)[C@@H](O)[C@@H](C)[C@H](OC(C)=O)[C@H](C)[C@@H](OC)/C=C/O[C@@](C)(O7)C6=O)CC1 [Compound 24, 3′-hydroxy-5′-[4-butanamide-1-piperidinyl]benzoxazinorifamycin] | 0.015 (≈ 15.5 nM) | 0.001 (≈ 1.03 nM) | 2 (≈ 2060 nM) | 2 (≈ 2060 nM) | >8
CO[C@H]1/C=C/O[C@@]2(C)Oc3c(C)c(O)c4c(=O)c(c5oc6cc(N7CCC(NS(C)(=O)=O)CC7)cc(O)c6nc-5c4c3C2=O)NC(=O)/C(C)=C\C=C\[C@H](C)[C@H](O)[C@@H](C)[C@@H](O)[C@@H](C)[C@H](OC(C)=O)[C@@H]1C [Compound 25] | 0.008 (≈ 8.19 nM) | 0.001 (≈ 1.02 nM) | 2 (≈ 2050 nM) | 2 (≈ 2050 nM) | >8
CCCNC(=O)NC1CCN(c2cc(O)c3nc4c5c6c7c(C)c(O)c5c(=O)c(c-4oc3c2)NC(=O)/C(C)=C\C=C\[C@H](C)[C@H](O)[C@@H](C)[C@@H](O)[C@@H](C)[C@H](O)[C@H](C)[C@@H](OC)/C=C/O[C@@](C)(O7)C6=O)CC1 [Compound 26, 25-O-deacetyl-3′-hydroxy-5′-[4-propyluryl-1-piperidinyl]benzoxazinorifamycin] | 0.008 (≈ 8.49 nM) | 0.00012 (≈ 0.127 nM) | 2 (≈ 2120 nM) | 1 (≈ 1060 nM) | >8
CO[C@H]1/C=C/O[C@@]2(C)Oc3c(C)c(O)c4c(=O)c(c5oc6cc(N7CCC(NS(C)(=O)=O)CC7)cc(O)c6nc-5c4c3C2=O)NC(=O)/C(C)=C\C=C\[C@H](C)[C@H](O)[C@@H](C)[C@@H](O)[C@@H](C)[C@H](O)[C@@H]1C [Compound 27] | 0.015 (≈ 16 nM) | 0.001 (≈ 1.07 nM) | 1 (≈ 1070 nM) | 0.12 (≈ 128 nM) | >8
CCCNC(=O)NC1CCN(c2cc(O)c3nc4c5c6c7c(C)c(O)c5c(=O)c(c-4oc3c2)NC(=O)/C(C)=C\C=C\[C@H](C)[C@H](O)[C@@H](C)[C@@H](O)[C@@H](C)[C@H](OC(C)=O)[C@H](C)[C@@H](OC)/C=C/O[C@@](C)(O7)C6=O)CC1 [Compound 28, 3′-hydroxy-5′-[4-propyluryl-1-piperidinyl]benzoxazinorifamycin] | 0.03 (≈ 30.5 nM) | 0.002 (≈ 2.03 nM) | 1 (≈ 1020 nM) | 0.25 (≈ 254 nM) | >8
CO[C@H]1/C=C/O[C@@]2(C)Oc3c(C)c(O)c4c(=O)c(c5oc6cc(N7CCC(NC(=O)OC(C)C)CC7)cc(O)c6nc-5c4c3C2=O)NC(=O)/C(C)=C\C=C\[C@H](C)[C@H](O)[C@@H](C)[C@@H](O)[C@@H](C)[C@H](O)[C@@H]1C [Compound 29] | 0.008 (≈ 8.48 nM) | 0.00012 (≈ 0.127 nM) | 2 (≈ 2120 nM) | 1 (≈ 1060 nM) | >8
CCOC(=O)NC1CCN(c2ccc3nc4c5c6c7c(C)c(O)c5c(=O)c(c-4n(C)c3c2)NC(=O)/C(C)=C\C=C\[C@H](C)[C@H](O)[C@@H](C)[C@@H](O)[C@@H](C)[C@H](O)[C@H](C)[C@@H](OC)/C=C/O[C@@](C)(O7)C6=O)CC1 [Compound 31] | 0.03 (≈ 32.4 nM) | 0.0005 (≈ 0.54 nM) | 0.25 (≈ 270 nM) | 0.25 (≈ 270 nM) | 8 (≈ 8640 nM)
CO[C@H]1/C=C/O[C@@]2(C)Oc3c(C)c(O)c4c(=O)c(c5oc6cc(N7CCC(N)CC7)cc(O)c6nc-5c4c3C2=O)NC(=O)/C(C)=C\C=C\[C@H](C)[C@H](O)[C@@H](C)[C@@H](O)[C@@H](C)[C@H](OC(C)=O)[C@@H]1C [Compound 33, 3′-hydroxy-5′-[4-amino-1-piperidinyl]benzoxazinorifamycin] | 0.008 (≈ 8.9 nM) | 0.00006 (≈ 0.0667 nM) | 1 (≈ 1110 nM) | 1 (≈ 1110 nM) | >8

Reference: US7271165B2, “Rifamycin analogs and uses thereof” (priority 2003, dated 2007)
